{"source": "patent US4659728A", "about": "“Hydroxy substituted 4,5-diphenyl-2-oxazole propanoic acid” (American Home Products Corporation, priority 1985, dated 1987)", "key": {"[1]": {"test_system": "carrageenan paw edema in the rat", "test": "Rat carrageenan edema", "assay_type": "in vivo, rat (male Sprague-Dawley)", "conditions": "1 h before carrageenan, edema at 3 h, *p ≤ 0.01 from control", "experimental": "(§1) The antiinflammatory utility of the compounds of this invention was established by standard procedures for evaluating antiinflammatory agents, namely, carrageenan paw edema in the rat and adjuvant arthritis (polyarthritis) in the rat. These procedures and the results obtained are summarized below:\n(§2) Groups of 6 male Sprague-Dawley rats (Honey Brook), weighing between 140-160 g were used in these experiments. Drugs were administered p.o. in 0.5% methylcellulose (400 centipoise). One hour after administering drugs or vehicle, 0.1 ml of 1% carrageenan was injected subplantar into the right hind paw. Right paw volumes were measured prior to carrageenan injection in milliliters using a mercury plethysmograph (i.e., zero time reading). After 3 hours, right paw volumes were remeasured and paw edema was calculated for each rat by subtracting the zero time reading from the 3 hour reading. Percent change in paw edema was calculated."}, "inflammation": {"test_system": "inflammation", "test": "Antiinflammatory activity overall (standard procedures: carrageenan paw edema and adjuvant arthritis in the rat)", "assay_type": "in vivo", "conditions": "compared with oxaprozin", "experimental": "as §1, §2\nGroups of 10 male Lewis rats (Charles River), weighing between 150-170 g were injected s.c. into the right paw with desiccated Mycobacterium butyricum (0.5 mg/0.1 ml) suspended in light mineral oil. […] Both hind paw volumes, in milliliters, were measured by mercury plethysmography at the time of injection of the complete adjuvant (day 0). Paw volumes were measured on day 4 (injected paw only) and on day 16 (uninjected paw). […]"}, "[2]": {"test_system": "adjuvant arthritis (polyarthritis) in the rat", "test": "Rat adjuvant arthritis", "assay_type": "in vivo, rat (male Lewis)", "conditions": "oral dose 150 mg/kg, days 0 to 15 except weekends; *p ≤ 0.01 from control", "experimental": "as §1\nGroups of 10 male Lewis rats (Charles River), weighing between 150-170 g were injected s.c. into the right paw with desiccated Mycobacterium butyricum (0.5 mg/0.1 ml) suspended in light mineral oil. Drugs were administered orally in 0.5% methylcellulose. The following dosing regimen was used: days 0 to 15 except for weekends. Both hind paw volumes, in milliliters, were measured by mercury plethysmography at the time of injection of the complete adjuvant (day 0). Paw volumes were measured on day 4 (injected paw only) and on day 16 (uninjected paw). Drug effects were expressed as percentage change from arthritic controls."}}, "data": [{"smiles": "O=C(O)CCc1nc(-c2ccccc2)c(-c2ccc(O)cc2)o1", "note": "[Example 1, 5-(4-hydroxyphenyl)-4-phenyl-2-oxazolepropanoic acid]", "values": [{"measurement": "% Inhibition of control paw edema", "setting": "[1]; oral dose 150 mg/kg", "result": 43, "unit": "%"}, {"measurement": "effectiveness in inhibiting inflammation", "setting": "inflammation", "result": "as effective as oxaprozin in inhibiting inflammation"}, {"measurement": "% Inhibition of control uninjected paw edema at day 16", "setting": "[2]", "result": 36, "unit": "%"}]}, {"smiles": "O=C(O)CCc1nc(-c2ccc(O)cc2)c(-c2ccccc2)o1", "note": "[Example 2, 4-(4-Hydroxyphenyl)-5-phenyl-2-oxazolepropanoic acid]", "values": [{"measurement": "% Inhibition of control paw edema", "setting": "[1]; oral dose 150 mg/kg", "result": 46, "unit": "%"}, {"measurement": "effectiveness in inhibiting inflammation", "setting": "inflammation", "result": "as effective as oxaprozin in inhibiting inflammation"}, {"measurement": "% Inhibition of control uninjected paw edema at day 16", "setting": "[2]", "result": 30, "unit": "%"}]}, {"smiles": "O=C(O)CCc1nc(-c2ccccc2)c(-c2ccccc2)o1", "note": "[Oxaprozin, 4,5-diphenyl-2-oxazolepropanoic acid, reference compound]", "values": [{"measurement": "% Inhibition of control paw edema", "setting": "[1]; oral dose 200 mg/kg", "result": 51, "unit": "%"}, {"measurement": "% Inhibition of control uninjected paw edema at day 16", "setting": "[2]", "result": 25, "unit": "%"}]}]}
